{
  "source": "PubChem BioAssay AID1963840",
  "about": "(Molecular Pharmacology Branch, DTP, NCI, 2024)",
  "system": "695427-040-R-J1-PDC complex spheroid viability",
  "test": "Anticancer human tumor 695427-040-R-J1-PDC patient-derived colon adenocarcinoma cell line growth inhibition [POLQ]",
  "settings": "for pIC50: curve of first compound; for viability, T/C: stronger effect = lower value",
  "description": "Multicellular complex tumor spheroid response to Polymerase (POL) inhibitors (novobiocin, ART-558, RP6685) in combination with a variety of drugs and investigational agents in selected tumor cell lines\nThe POL inhibitors (novobiocin, ART-558, and RP6685) were evaluated both individually and in combination with standard of care and investigational anticancer small molecules within a complex spheroid model of solid tumors. . Complex spheroids include a stromal component modeled by human endothelial cells (HUVEC) and fibroblasts modeled by human mesenchymal stem cells (MSCs). The concentration ranges selected for each drug and investigational agent were based upon clinically achievable concentrations if the clinical Cmax of the agent was known.\nCompounds. The drugs and investigational agents: novobiocin (NSC847541), ART-558 (NSC835418), RP-6685 (NSC848927), peposertib (NSC802822), ceralasertib (NSC780249), elimusertib (NSC800525), camonsertib (NSC841442), AZD-1390 (NSC803789), olaparib (NSC753686), talazoparib (NSC767125), rucaparib (NSC756644), sotorasib (NSC818433), MRTX-1133 (NSC836407), SN-38 (NSC673596), topotecan (NSC609699), epotoside (NSC141540), doxorubicin (NSC123127), gemcitabine (NSC613327), 5-fluorouracil (NSC19893), paclitaxel (NSC125973), vemurafenib (NSC761431), MSA-2 (NSC828583), SN-011 (NSC837082), adavosertib (NSC754352), prexasertib (NSC758257), carboplatin (NSC241240) and oxaliplatin (NSC266046), were obtained from the National Cancer Institute (NCI) Developmental Therapeutics Program Chemical Repository (21). The FDA-approved anticancer drug set is available from the Developmental Therapeutics Program at https://dtp.cancer.gov/organization/dscb/obtaining/. […] The stock solutions were prepared in dimethyl sulfoxide (DMSO, Sigma-Aldrich, St. Louis, MO, cat. D2650), except for the platinum compounds which were prepared in saline (Quality Biological, Gaithersburg, MD, cat. 114-055-101), at 800-fold the tested concentration and stored at -70 degrees C prior to their use. All drugs and investigational agents were tested over a range starting from a high concentration at or near the clinical Cmax and decreasing in half-log increments. If the clinical Cmax for an agent had not been determined, the highest concentration tested was 10 microM, except for SN-38, which was tested at a high concentration of 1 microM.\nCell Culture. All cells were maintained in an incubator at 37 degrees C and 5% CO2 with 95% humidity. The PDC lines were cultured according to standard operating procedures established by the NCI PDMR (https://pdmr.cancer.gov). Table 3 of the manuscript, lists the cell lines along with the number of the three cell types plated to form the mct-spheroids and media for tumor cell growth. After thawing, all PDC lines, except 997537-175-T-J1-PDC and 415267-285-R-J2-PDC, were cultured in Matrigel-coated flasks prepared with a working solution of 1X Ham's F-12 nutrient mix, without supplementation (Thermo Fisher Scientific, cat. 11765054), 100 U/mL penicillin-streptomycin (Thermo Fisher Scientific, cat. 15140122), and 2.5% Matrigel (Corning Inc., Corning, NY, cat. 354248) for the first three passages. The two PDC lines 997537-175-T-J1-PDC and 415267-285-R-J2-PDC were cultured on uncoated flasks. The 857933-349-R-J2-PDC line was cultured in 6C/Colon 1B media containing advanced DMEM/F-12 (Thermo Fisher Scientific, cat. 12634028), 10 mM HEPES (Thermo Fisher Scientific, cat. 15630080), 1X GlutaMAX supplement (Thermo Fisher Scientific, cat. 35050061), 0.1 mg/mL primocin (InvivoGen, San Diego, CA, cat. ant-pm-2), 10% defined fetal bovine serum, heat inactivated (HyClone Laboratories Inc., Logan, UT, cat. SH30070.03HI), 50% L-WRN conditioned media (ATCC, cat. CRL-3276), 1.25 mM N-Acetyl-L-cysteine (Sigma-Aldrich, cat. A9165), 10 mM nicotinamide (Sigma-Aldrich, cat. N0636), 1X B-27 supplement (Thermo Fisher Scientific, cat. 17504044), 1X N-2 supplement (Thermo Fisher Scientific, cat. […]",
  "note": "pIC50: −log10 of the molar value.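 Note: spheroids exposed to compounds for seven days.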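 Throughout, for viability, T/C: 100% = DMSO vehicle control viability.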",
  "data": [
    {"smiles": "COc1cccc2c1C(=O)c1c(O)c3c(c(O)c1C2=O)CC(O)(C(=O)CO)CC3OC1CC(N)C(O)C(C)O1", "note": "(configuration not stated) + Nc1ccc(C#CCN(C(=O)Cc2ncc(C(F)(F)F)cc2C(F)(F)F)c2ccc(F)cc2)nn1", "values": [
      {"measurement": "pIC50", "setting": "second compound 0.0316 µM", "result": "< 5.00"},
      {"measurement": "pIC50", "setting": "second compound 0.1 µM", "result": "< 5.00"},
      {"measurement": "pIC50", "setting": "second compound 0.316 µM", "result": "< 5.00"},
      {"measurement": "pIC50", "setting": "second compound 1 µM", "result": "< 5.00"},
      {"measurement": "pIC50", "setting": "second compound 3.16 µM", "result": "< 5.00"},
      {"measurement": "pIC50", "setting": "second compound 10 µM", "result": 5.47},
      {"measurement": "viability, T/C", "setting": "second compound 0.0316 µM, first compound 0.0316 µM", "result": 101, "unit": "%"},
      {"measurement": "viability, T/C", "setting": "second compound 0.0316 µM, first compound 0.1 µM", "result": 90.9, "unit": "%"},
      {"measurement": "viability, T/C", "setting": "second compound 0.0316 µM, first compound 0.316 µM", "result": 97.3, "unit": "%"},
      {"measurement": "viability, T/C", "setting": "second compound 0.0316 µM, first compound 1 µM", "result": 78.2, "unit": "%"},
      {"measurement": "viability, T/C", "setting": "second compound 0.0316 µM, first compound 3.16 µM", "result": 79.6, "unit": "%"},
      {"measurement": "viability, T/C", "setting": "second compound 0.0316 µM, first compound 10 µM", "result": 71, "unit": "%"},
      {"measurement": "viability, T/C", "setting": "second compound 0.1 µM, first compound 0.0316 µM", "result": 113, "unit": "%"},
      {"measurement": "viability, T/C", "setting": "second compound 0.1 µM, first compound 0.1 µM", "result": 95, "unit": "%"},
      {"measurement": "viability, T/C", "setting": "second compound 0.1 µM, first compound 0.316 µM", "result": 98.9, "unit": "%"},
      {"measurement": "viability, T/C", "setting": "second compound 0.1 µM, first compound 1 µM", "result": 80, "unit": "%"},
      {"measurement": "viability, T/C", "setting": "second compound 0.1 µM, first compound 3.16 µM", "result": 84.5, "unit": "%"},
      {"measurement": "viability, T/C", "setting": "second compound 0.1 µM, first compound 10 µM", "result": 64.6, "unit": "%"},
      {"measurement": "viability, T/C", "setting": "second compound 0.316 µM, first compound 0.0316 µM", "result": 99.6, "unit": "%"},
      {"measurement": "viability, T/C", "setting": "second compound 0.316 µM, first compound 0.1 µM", "result": 99.8, "unit": "%"},
      {"measurement": "viability, T/C", "setting": "second compound 0.316 µM, first compound 0.316 µM", "result": 94.4, "unit": "%"},
      {"measurement": "viability, T/C", "setting": "second compound 0.316 µM, first compound 1 µM", "result": 83.7, "unit": "%"},
      {"measurement": "viability, T/C", "setting": "second compound 0.316 µM, first compound 3.16 µM", "result": 81.5, "unit": "%"},
      {"measurement": "viability, T/C", "setting": "second compound 0.316 µM, first compound 10 µM", "result": 68.3, "unit": "%"},
      {"measurement": "viability, T/C", "setting": "second compound 1 µM, first compound 0.0316 µM", "result": 106, "unit": "%"},
      {"measurement": "viability, T/C", "setting": "second compound 1 µM, first compound 0.1 µM", "result": 89.5, "unit": "%"},
      {"measurement": "viability, T/C", "setting": "second compound 1 µM, first compound 0.316 µM", "result": 95.7, "unit": "%"},
      {"measurement": "viability, T/C", "setting": "second compound 1 µM, first compound 1 µM", "result": 81.8, "unit": "%"},
      {"measurement": "viability, T/C", "setting": "second compound 1 µM, first compound 3.16 µM", "result": 79.6, "unit": "%"},
      {"measurement": "viability, T/C", "setting": "second compound 1 µM, first compound 10 µM", "result": 58.6, "unit": "%"},
      {"measurement": "viability, T/C", "setting": "second compound 3.16 µM, first compound 0.0316 µM", "result": 96.2, "unit": "%"},
      {"measurement": "viability, T/C", "setting": "second compound 3.16 µM, first compound 0.1 µM", "result": 92, "unit": "%"},
      {"measurement": "viability, T/C", "setting": "second compound 3.16 µM, first compound 0.316 µM", "result": 90.9, "unit": "%"},
      {"measurement": "viability, T/C", "setting": "second compound 3.16 µM, first compound 1 µM", "result": 77.8, "unit": "%"},
      {"measurement": "viability, T/C", "setting": "second compound 3.16 µM, first compound 3.16 µM", "result": 76.9, "unit": "%"},
      {"measurement": "viability, T/C", "setting": "second compound 3.16 µM, first compound 10 µM", "result": 51.6, "unit": "%"},
      {"measurement": "viability, T/C", "setting": "second compound 10 µM, first compound 0.0316 µM", "result": 95.8, "unit": "%"},
      {"measurement": "viability, T/C", "setting": "second compound 10 µM, first compound 0.1 µM", "result": 84.3, "unit": "%"},
      {"measurement": "viability, T/C", "setting": "second compound 10 µM, first compound 0.316 µM", "result": 86.6, "unit": "%"},
      {"measurement": "viability, T/C", "setting": "second compound 10 µM, first compound 1 µM", "result": 68.7, "unit": "%"},
      {"measurement": "viability, T/C", "setting": "second compound 10 µM, first compound 3.16 µM", "result": 50.8, "unit": "%"},
      {"measurement": "viability, T/C", "setting": "second compound 10 µM, first compound 10 µM", "result": 35.3, "unit": "%"}
    ]}
  ]
}
